Source: patent US20250011404A1, “TARGETING APOE ENHANCES T-CELL KILLING IN CANCER IMMUNOTHERAPY” (Children's National Medical Center, priority 2021, published 2025)

Test system: mouse apoE gene
Assay: gRNA screening by next generation sequencing for INDEL frequency in B16-F10 cells
Assay type: cell-based
Settings: RNP electroporated into B16-F10 cells; NGS
Method: Six guide RNAs (gRNAs) were designed using IDT's gRNA design tool, targeting the mouse apoE gene. gRNAs were synthesized as 2-part crRNA: tracrRNA gRNAs with chemical modifications (Integrated DNA Technologies, Inc., IA) and were functionally screened by next generation sequencing (NGS) for high INDEL (insertion/deletion) frequency and low in-frame INDEL rates. gRNAs were prepared by complexing a 1:1 molar ratio of the crRNA: tracrRNA at a final concentration of 100 μM, heating to 95° C. and slowly cooling to room temperature. […]
The electroporated cells were plated in 1 well of a 6-well plate and allowed to grow until confluent. The cells were then dissociated by trypsinization, resuspended in media, and counted. […] The genomic DNA from each well was subject to quantification of total editing and analysis of INDEL profile by NGS to confirm a monoclonal isolate.
Genomic DNA libraries for sequencing were prepared using IDT rhAmpSeq targeted amplification. […] Libraries were purified using Agencourt® AMPure® XP system (Beckman Coulter, Brea, CA, USA) with a 1:1 ratio of beads to reaction by volume and quantified with quantitative real-time PCR (qPCR) before loading onto the Illumina® MiSeq platform (Illumina, San Diego, CA, USA). Paired end 150 base pair reads were sequenced using V2 chemistry. A sequencing depth of at least 1000 reads was obtained for each sample. […]

With “GGACACTATGACGGAAGTAA (listed as DNA, chemistry not given here) [Mm. Cas9.APOE.1-E]” the INDEL frequency was 99% and the “in-frame INDELs” value was “no”.
